Patent US9580416B2, “Inhibitors of Bruton's tyrosine kinase” (PHARMACYCLICS LLC, priority 2014, dated 2017)

Assays:
Assay type in all cases: biochemical
[1] = target: Lck (Homo sapiens, UniProt P06239); assay: Lck kinase activity, TR-FRET assay; settings: read-out: LCK (IC50)
Procedure, shortened: (§1)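 Enzyme (Btk 0.5 nM; Lck 6 nM) reacted 1 h with inhibitor, ATP at Km and biotin-peptide substrate in pH 7.4 buffer, 10% DMSO. Phosphopeptide detected by Eu-p-Tyr100 antibody plus streptavidin-APC (665/615 nm). IC50 calculated from fitted Ki(app) via ATP/Km correction plus half total enzyme.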

[2] = target: Btk (Homo sapiens, UniProt Q06187); assay: Btk kinase activity, TR-FRET assay; settings: read-out: Btk (IC50)
Chain of Btk (Q06187 whole entry): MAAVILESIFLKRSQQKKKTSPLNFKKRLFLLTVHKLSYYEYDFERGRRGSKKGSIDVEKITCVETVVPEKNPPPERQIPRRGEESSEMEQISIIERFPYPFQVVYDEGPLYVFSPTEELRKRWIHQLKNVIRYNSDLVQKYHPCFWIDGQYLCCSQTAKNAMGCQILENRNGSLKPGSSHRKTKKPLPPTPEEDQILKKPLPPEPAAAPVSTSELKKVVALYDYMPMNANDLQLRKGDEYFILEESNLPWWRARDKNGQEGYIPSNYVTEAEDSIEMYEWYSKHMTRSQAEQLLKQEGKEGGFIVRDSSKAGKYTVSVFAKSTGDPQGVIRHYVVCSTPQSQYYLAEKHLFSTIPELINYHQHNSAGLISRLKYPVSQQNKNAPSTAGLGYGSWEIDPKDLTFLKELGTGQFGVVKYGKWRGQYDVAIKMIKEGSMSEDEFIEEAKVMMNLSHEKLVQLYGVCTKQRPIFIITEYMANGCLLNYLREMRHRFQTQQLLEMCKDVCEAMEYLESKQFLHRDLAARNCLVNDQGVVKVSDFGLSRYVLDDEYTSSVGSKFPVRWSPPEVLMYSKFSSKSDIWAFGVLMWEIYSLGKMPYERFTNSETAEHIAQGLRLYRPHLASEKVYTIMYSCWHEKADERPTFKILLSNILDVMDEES
Procedure, shortened: as §1

[3] = target: EGFR (Homo sapiens, UniProt P00533); assay: Inhibition of a panel of kinases, in vitro HotSpot kinase assay: EGFR
Chain of EGFR (P00533 25-1210): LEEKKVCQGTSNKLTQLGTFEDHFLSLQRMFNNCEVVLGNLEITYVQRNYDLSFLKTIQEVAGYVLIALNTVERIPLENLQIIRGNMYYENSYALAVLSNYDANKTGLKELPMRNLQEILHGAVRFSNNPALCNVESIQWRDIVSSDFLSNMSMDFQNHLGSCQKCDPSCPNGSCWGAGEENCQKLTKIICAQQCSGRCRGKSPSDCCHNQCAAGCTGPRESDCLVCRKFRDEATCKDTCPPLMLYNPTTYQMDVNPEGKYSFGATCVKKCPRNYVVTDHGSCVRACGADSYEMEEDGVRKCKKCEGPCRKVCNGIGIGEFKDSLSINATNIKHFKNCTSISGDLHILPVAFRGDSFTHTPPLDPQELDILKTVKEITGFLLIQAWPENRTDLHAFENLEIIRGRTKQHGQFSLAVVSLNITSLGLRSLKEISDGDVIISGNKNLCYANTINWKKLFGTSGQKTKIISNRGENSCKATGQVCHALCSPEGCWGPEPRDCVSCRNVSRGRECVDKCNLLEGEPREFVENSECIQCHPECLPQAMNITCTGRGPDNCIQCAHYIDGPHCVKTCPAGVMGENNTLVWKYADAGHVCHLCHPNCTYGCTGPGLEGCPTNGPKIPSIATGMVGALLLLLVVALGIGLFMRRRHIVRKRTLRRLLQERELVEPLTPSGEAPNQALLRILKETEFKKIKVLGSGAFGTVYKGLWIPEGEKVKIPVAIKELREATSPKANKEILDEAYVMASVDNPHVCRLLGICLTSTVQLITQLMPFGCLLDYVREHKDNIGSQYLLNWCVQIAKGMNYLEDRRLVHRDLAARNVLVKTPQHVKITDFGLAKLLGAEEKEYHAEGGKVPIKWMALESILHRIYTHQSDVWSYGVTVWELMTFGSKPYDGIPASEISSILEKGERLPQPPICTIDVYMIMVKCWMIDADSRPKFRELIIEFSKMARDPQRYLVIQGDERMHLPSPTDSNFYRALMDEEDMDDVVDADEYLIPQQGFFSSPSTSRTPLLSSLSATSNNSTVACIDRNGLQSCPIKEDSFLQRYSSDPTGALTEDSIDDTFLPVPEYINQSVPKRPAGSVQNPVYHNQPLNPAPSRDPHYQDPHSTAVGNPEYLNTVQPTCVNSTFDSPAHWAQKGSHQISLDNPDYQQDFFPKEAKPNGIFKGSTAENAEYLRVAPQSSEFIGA
Protocol: (§2) The degree of inhibition of a panel of kinases is determined using the in vitro HotSpot kinase assay (purified enzymes, ^33P-ATP, an appropriate substrate and 1 uM ATP).

[4] = target: T1, JAK3 (Homo sapiens, UniProt P52333); assay: Inhibition of a panel of kinases, in vitro HotSpot kinase assay: JAK3
T1 sequence (P52333 1-1124): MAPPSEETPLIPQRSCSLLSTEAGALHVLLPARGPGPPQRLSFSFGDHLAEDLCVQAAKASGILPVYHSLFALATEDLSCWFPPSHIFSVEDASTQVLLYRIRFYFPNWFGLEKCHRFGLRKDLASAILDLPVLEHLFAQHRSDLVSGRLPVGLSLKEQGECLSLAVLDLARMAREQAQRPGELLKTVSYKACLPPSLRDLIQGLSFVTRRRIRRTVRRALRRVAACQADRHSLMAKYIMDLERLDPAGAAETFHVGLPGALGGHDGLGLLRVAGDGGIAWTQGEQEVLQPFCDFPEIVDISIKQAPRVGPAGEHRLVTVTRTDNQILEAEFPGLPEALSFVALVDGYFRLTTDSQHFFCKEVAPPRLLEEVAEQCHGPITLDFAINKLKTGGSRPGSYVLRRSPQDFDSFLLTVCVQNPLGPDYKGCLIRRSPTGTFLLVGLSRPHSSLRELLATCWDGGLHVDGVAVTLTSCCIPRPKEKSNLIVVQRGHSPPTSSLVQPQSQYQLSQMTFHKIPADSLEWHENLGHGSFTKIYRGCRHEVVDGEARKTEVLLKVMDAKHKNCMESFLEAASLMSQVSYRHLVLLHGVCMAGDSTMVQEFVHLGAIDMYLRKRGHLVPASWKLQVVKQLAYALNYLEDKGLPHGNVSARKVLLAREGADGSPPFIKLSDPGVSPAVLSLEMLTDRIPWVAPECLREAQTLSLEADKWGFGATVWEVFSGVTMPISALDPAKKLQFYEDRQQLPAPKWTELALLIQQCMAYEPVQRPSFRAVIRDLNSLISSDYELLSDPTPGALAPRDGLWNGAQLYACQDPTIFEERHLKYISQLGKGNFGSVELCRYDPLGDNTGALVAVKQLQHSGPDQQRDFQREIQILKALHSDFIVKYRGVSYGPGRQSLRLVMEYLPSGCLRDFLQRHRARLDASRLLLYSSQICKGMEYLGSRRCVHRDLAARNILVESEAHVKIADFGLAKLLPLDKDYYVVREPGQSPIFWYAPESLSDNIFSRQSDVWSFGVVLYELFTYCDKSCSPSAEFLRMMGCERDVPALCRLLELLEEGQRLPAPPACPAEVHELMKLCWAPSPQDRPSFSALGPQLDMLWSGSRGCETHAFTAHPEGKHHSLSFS
Protocol: as §2

Chain of Lck (P06239 whole entry, species assumed): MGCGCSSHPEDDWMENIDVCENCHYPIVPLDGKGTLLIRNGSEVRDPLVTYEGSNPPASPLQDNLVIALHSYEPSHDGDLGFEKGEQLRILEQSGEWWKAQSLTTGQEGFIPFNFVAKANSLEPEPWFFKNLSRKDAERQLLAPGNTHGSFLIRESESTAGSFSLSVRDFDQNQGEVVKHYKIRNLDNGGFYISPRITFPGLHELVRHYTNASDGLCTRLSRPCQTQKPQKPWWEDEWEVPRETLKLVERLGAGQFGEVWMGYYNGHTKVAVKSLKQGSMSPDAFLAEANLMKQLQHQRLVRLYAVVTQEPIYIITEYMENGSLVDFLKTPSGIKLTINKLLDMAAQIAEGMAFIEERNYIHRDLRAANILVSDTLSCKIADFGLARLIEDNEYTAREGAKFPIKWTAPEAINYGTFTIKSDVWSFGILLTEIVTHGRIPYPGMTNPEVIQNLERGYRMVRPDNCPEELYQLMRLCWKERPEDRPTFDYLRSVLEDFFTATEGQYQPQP

Row | SMILES | IC50 [1] [nM] | IC50 [2] [nM] | IC50 [3] [nM] | IC50 [4] [nM]
1 | COCC#CC(=O)N1CCC[C@@H](Nc2n[nH]c3nccc(Oc4ccc(C(=O)Nc5cc(C)ccn5)cc4)c23)C1 [compound 281, (R)-4-(3-(1-(4-methoxybut-2-ynoyl)piperidin-3-ylamino)-1H-pyrazolo[3,4-b]pyridin-4-yloxy)-N-(4-methylpyridin-2-yl)benzamide] | 1000 to 10000 | < 100 | 1000 to 10000 | 100 to 1000
2 | C=CC(=O)N1CC[C@@H](Nc2n[nH]c3nccc(Oc4cccc(C(=O)Nc5ccc(C(C)C)c(C)c5)c4)c23)C1 [compound 122, N-[3-methyl-4-(propan-2-yl)phenyl]-3-[(3-{[(3R)-1-(prop-2-enoyl)pyrrolidin-3-yl]amino}-1H-pyrazolo[3,4-b]pyridin-4-yl)oxy]benzamide] | < 100 | < 100 | 100 to 1000 | < 100
3 | Cc1ccnc(NC(=O)c2ccc(Oc3ccnc4[nH]nc(NC5CCN(C(=O)C6(C#N)CC6)CC5)c34)cc2)c1 [compound 277, 4-(3-(1-(1-cyanocyclopropanecarbonyl)piperidin-4-ylamino)-1H-pyrazolo[3,4-b]pyridin-4-yloxy)-N-(4-methylpyridin-2-yl)benzamide] | 1000 to 10000 | 100 to 1000 | 1000 to 10000 | > 10000
4 | Cc1ccnc(NC(=O)c2ccc(Oc3ccnc4[nH]nc(N[C@@H]5CCCN(C(=O)CCN(C)C)C5)c34)cc2)c1 [compound 118, 4-[(3-{[(3R)-1-[3-(dimethylamino)propanoyl]piperidin-3-yl]amino}-1H-pyrazolo[3,4-b]pyridin-4-yl)oxy]-N-(4-methylpyridin-2-yl)benzamide] | < 100 | < 100 | 1000 to 10000 | > 10000
5 | C=CC(=O)N1CCC[C@@H](Nc2n[nH]c3nccc(Oc4ccc(Oc5ccccc5)c(C)c4)c23)C1 [compound 153] | 100 to 1000 | < 100 | < 100 | 100 to 1000
6 | Cc1nc(NC(=O)c2ccc(Oc3ccnc4[nH]nc(N[C@@H]5CCCN(C(=O)/C=C/CN(C)C6CC6)C5)c34)cc2)sc1C [compound 164] | 1000 to 10000 | < 100 | 1000 to 10000 | 1000 to 10000
7 | Cc1ccnc(NC(=O)c2ccc(Oc3ccnc4[nH]nc(N[C@@H]5CCCN(C(=O)[C@H]6CCOC6)C5)c34)cc2)c1 [compound 116, N-(4-methylpyridin-2-yl)-4-[(3-{[(3R)-1-[(3S)-oxolane-3-carbonyl]piperidin-3-yl]amino}-1H-pyrazolo[3,4-b]pyridin-4-yl)oxy]benzamide] | 100 to 1000 | < 100 | 1000 to 10000 | > 10000
8 | CCNC(=O)N1CCC[C@@H](Nc2n[nH]c3nccc(Oc4ccc(-c5nc6ccccc6[nH]5)cc4)c23)C1 [compound 224, (3R)-3-({4-[4-(1H-1,3-benzodiazol-2-yl)phenoxy]-1H-pyrazolo[3,4-b]pyridin-3-yl}amino)-N-ethylpiperidine-1-carboxamide] | 1000 to 10000 | 1000 to 10000 | > 10000 | > 10000
9 | Cc1ccnc(NC(=O)c2ccc(Oc3ccnc4[nH]nc(N[C@@H]5CCCN(C(=O)c6ccccn6)C5)c34)cc2)c1 [compound 110, N-(4-methylpyridin-2-yl)-4-[(3-{[(3R)-1-(pyridine-2-carbonyl)piperidin-3-yl]amino}-1H-pyrazolo[3,4-b]pyridin-4-yl)oxy]benzamide] | 1000 to 10000 | < 100 | > 10000 | > 10000
10 | C=CC(=O)N1CCC[C@@H](Nc2n[nH]c3nccc(Oc4ccc(NC(=O)Nc5cc(C(F)(F)F)ccn5)cc4)c23)C1 [compound 201, 1-{4-[(3-{[(3R)-1-(prop-2-enoyl)piperidin-3-yl]amino}-1H-pyrazolo[3,4-b]pyridin-4-yl)oxy]phenyl}-3-[4-(trifluoromethyl)pyridin-2-yl]urea] | < 100 | < 100 | < 100 | < 100
11 | CCC(=O)N1CCC[C@@H](Nc2n[nH]c3nccc(Oc4ccc(-c5nc6cccc(C)c6o5)cc4)c23)C1 [compound 219, 1-[(3R)-3-({4-[4-(7-methyl-1,3-benzoxazol-2-yl)phenoxy]-1H-pyrazolo[3,4-b]pyridin-3-yl}amino)piperidin-1-yl]propan-1-one] | > 10000 | > 10000 | > 10000 | > 10000

Now from value to compound:

Row | IC50 [1] [nM] | IC50 [2] [nM] | IC50 [3] [nM] | IC50 [4] [nM] | SMILES
12 | 1000 to 10000 | < 100 | > 10000 | > 10000 | Cc1cnc(NC(=O)c2ccc(Oc3ccnc4[nH]nc(N[C@@H]5CCN(C(=O)CCCN(C)C)C5)c34)cc2)s1 [compound 202, 4-[(3-{[(3R)-1-[4-(dimethylamino)butanoyl]pyrrolidin-3-yl]amino}-1H-pyrazolo[3,4-b]pyridin-4-yl)oxy]-N-(5-methyl-1,3-thiazol-2-yl)benzamide]
13 | > 10000 | 100 to 1000 | > 10000 | > 10000 | CCNC(=O)N[C@H]1CCCN(c2n[nH]c3nccc(Oc4ccc(C(=O)Nc5cc(C(F)(F)F)ccn5)cc4)c23)C1 [compound 234, 4-({3-[(3S)-3-[(ethylcarbamoyl)amino]piperidin-1-yl]-1H-pyrazolo[3,4-b]pyridin-4-yl}oxy)-N-[4-(trifluoromethyl)pyridin-2-yl]benzamide]
14 | 1000 to 10000 | < 100 | < 100 | < 100 | C=CC(=O)N1CCC[C@@H](Oc2n[nH]c3nccc(Nc4cccc(C(=O)Nc5ccc(C(C)C)c(C)c5)c4)c23)C1 [compound 132, N-[3-methyl-4-(propan-2-yl)phenyl]-3-[(3-{[(3R)-1-(prop-2-enoyl)piperidin-3-yl]oxy}-1H-pyrazolo[3,4-b]pyridin-4-yl)amino]benzamide]
15 | 100 to 1000 | < 100 | 100 to 1000 | < 100 | C=CC(=O)N1CCC[C@@H](Nc2n[nH]c3nccc(Oc4ccc(C(=O)Nc5ncc(C)s5)cc4)c23)C1 [compound 140]
16 | > 10000 | < 100 | > 10000 | 1000 to 10000 | Cc1ccnc(NC(=O)c2ccc(Oc3ccnc4[nH]nc(N[C@@H]5CCCN(C(=O)[C@@H]6CCCO6)C5)c34)cc2)c1 [compound 117, N-(4-methylpyridin-2-yl)-4-[(3-{[(3R)-1-[(2S)-oxolane-2-carbonyl]piperidin-3-yl]amino}-1H-pyrazolo[3,4-b]pyridin-4-yl)oxy]benzamide]
17 | > 10000 | 100 to 1000 | 1000 to 10000 | 100 to 1000 | C=CC(=O)N1CCCC(Nc2n[nH]c3nccc(Oc4ccc(-c5ccc(C(F)(F)F)cn5)cc4)c23)C1 (stereo in doubt) [compound 196, 1-[(3S)-3-[(4-{4-[5-(trifluoromethyl)pyridin-2-yl]phenoxy}-1H-pyrazolo[3,4-b]pyridin-3-yl)amino]piperidin-1-yl]prop-2-en-1-one]
18 | 100 to 1000 | < 100 | 1000 to 10000 | 1000 to 10000 | CN(C/C=C/C(=O)N1CCC[C@@H](Nc2n[nH]c3nccc(Oc4ccc(C(=O)Nc5nc6ccccc6s5)cc4)c23)C1)C1CC1 [compound 167]
19 | 100 to 1000 | < 100 | 1000 to 10000 | > 10000 | CCNC(=O)N[C@@H]1CCCN(c2n[nH]c3nccc(Oc4ccc(C(=O)Nc5cc(C(F)(F)F)ccn5)cc4)c23)C1 [compound 228, 4-({3-[(3R)-3-[(ethylcarbamoyl)amino]piperidin-1-yl]-1H-pyrazolo[3,4-b]pyridin-4-yl}oxy)-N-[4-(trifluoromethyl)pyridin-2-yl]benzamide]
20 | 100 to 1000 | < 100 | 1000 to 10000 | > 10000 | Cc1ccnc(NC(=O)c2ccc(Oc3ccnc4[nH]nc(NC5CCN(C#N)CC5)c34)cc2)c1 [compound 278, 4-(3-(1-cyanopiperidin-4-ylamino)-1H-pyrazolo[3,4-b]pyridin-4-yloxy)-N-(4-methylpyridin-2-yl)benzamide]
